Activity calls are given as the source filed them. No rule for the calls is given here.

The test system of the series is GENE-TOX genotoxicity assays, various organisms and cells. Briefly: GENE-TOX mutagenicity studies.
Setting [1] is: Species/Cell Type: Saccharomyces cerevisiae, Assay Type: Mitotic recombination or gene conversion, Assay Code: YEH-, Evaluation Type: Evaluation A (Pre-1980).
[2] abbreviates: Species/Cell Type: Salmonella typhimurium (one or more of the five standard strains: TA98, TA100, TA1535, TA1537, and TA1538), Assay Type: Histidine reverse gene mutation, Ames assay, Assay Code: SALT, Evaluation Type: Evaluation A (Pre-1980).

`CC[n+]1c(-c2ccccc2)c2cc(N)ccc2c2ccc(N)cc21`: the mutagenic call (Species/Cell Type: Chinese hamster ovary (CHO) cells, Assay Type: Forward gene mutation at the HPRT locus, Assay Code: CHO+, Evaluation Type: Evaluation B (Post-1980)) is “active; positive”; the mutagenic call (Species/Cell Type: Escherichia coli polA (W3119 vs P3478), Assay Type: Rec-assay, DNA effects (bacterial DNA repair), Assay Code: RE1+, Evaluation Type: Evaluation A (Pre-1980)) was “active; positive”; the mutagenic call (Species/Cell Type: Mammalian cell culture, nonhuman, Assay Type: Micronucleus test in vitro, chromosome aberrations, Assay Code: MN&+, Evaluation Type: Evaluation A (Pre-1980)) was “active; positive”; the mutagenic call (Species/Cell Type: Mammalian germ cells, Sex: Male, Assay Type: Chromosome aberrations in vivo, Assay Code: CY9T, Evaluation Type: Evaluation A (Pre-1980)) is listed as “no conclusion”; the mutagenic call (Species/Cell Type: Mouse, Sex: Male, Assay Type: Sperm morphology, Assay Code: SPI-, Evaluation Type: Evaluation A (Pre-1980)) is “inactive; negative”; the mutagenic call (Species/Cell Type: Saccharomyces cerevisiae, Assay Type: Mitotic recombination or gene conversion, Assay Code: YEC-, Evaluation Type: Evaluation A (Pre-1980)) was “inactive; negative”. Also, the mutagenic call was “inactive; negative” under setting [1]; “inactive; negative” (Species/Cell Type: Saccharomyces cerevisiae, Assay Type: Reverse gene mutation, Assay Code: YER-, Evaluation Type: Evaluation A (Pre-1980)); “active; positive” (Species/Cell Type: Salmonella typhimurium (one or more of the five standard strains: TA98, TA100, TA1535, TA1537, and TA1538), Assay Type: Histidine reverse gene mutation, Ames assay, Assay Code: SAL+, Evaluation Type: Evaluation A (Pre-1980)); “inactive; negative” (Species/Cell Type: Syrian hamster embryo (SA7/SHE) cells, Assay Type: Cell transformation, viral enhanced, Assay Code: CT7-, Evaluation Type: Evaluation A (Pre-1980)).
On to `CCCCN(CC(=O)O)N=O`, for which the mutagenic call under setting [2] is “no conclusion”.
For `OCc1c2c(cc3ccccc13)-c1ccccc1C1OC21` (stereo not given), the mutagenic call (Species/Cell Type: Mouse prostate cells, Assay Type: Cell transformation, Assay Code: CTM+, Evaluation Type: Evaluation A (Pre-1980)) was “active; positive”.
For the compound `c1cc2c3c(cccc3c1)CC2`, the mutagenic call (Species/Cell Type: Drosophila melanogaster, Assay Type: Aneuploidy, sex chromosome gain, chromosome aberrations, Assay Code: DAGT, Evaluation Type: Evaluation A (Pre-1980)) is on record as “no conclusion”.
On to `C/C=C/C=C/C(=O)O`, for which the mutagenic call (Species/Cell Type: Nonhuman, Assay Type: Sister-chromatid exchange (SCE) in vitro, Assay Code: SC2T, Evaluation Type: Evaluation A (Pre-1980)) is “no conclusion”.
On to `CN1CCC(=C2c3ccccc3C=Cc3ccccc32)CC1`, for which, under setting [2], the mutagenic call was “no conclusion”.
In the case of `O=C(COc1ccc(Br)cc1CN1CCOCC1)N/N=C/c1ccccc1`, the mutagenic call (Species/Cell Type: Saccharomyces cerevisiae, Assay Type: Reverse gene mutation, Assay Code: YERT, Evaluation Type: Evaluation A (Pre-1980)) was “no conclusion”.
With `C[C@@H]1C[C@@]2(O[C@H]2C)C(=O)O[C@@H]2CCN3CC=C(COC(=O)[C@]1(C)O)[C@H]23`, the mutagenic call is “active; positive” (Species/Cell Type: Allium cepa, Assay Type: Chromosome aberrations, Assay Code: ALC+, Evaluation Type: Evaluation A (Pre-1980)) and “no conclusion” (Species/Cell Type: Drosophila melanogaster, Assay Type: Sex-linked recessive lethal gene mutation, Assay Code: SRLT, Evaluation Type: Evaluation A (Pre-1980)).
With `CC1=C2C(=CO[C@H](C)[C@H]2C)C(=O)C(C(=O)O)=C1O`, the mutagenic call is, setting by setting: (Species/Cell Type: Bacillus subtilis (H17 vs M45), Assay Type: Rec-assay, spot test, DNA effects (bacterial DNA repair), Assay Code: REW+, Evaluation Type: Evaluation A (Pre-1980)) “active; positive”; under setting [1], “inactive; negative”.

These data come from PubChem BioAssay AID1259408 (Genetic Toxicology Data Bank (GENE-TOX), 2018).
